Source: patent US20130121994A1, “TRIAZOLOPYRIDINE DERIVATIVES” (BAYER INTELLECTUAL PROPERTY GMBH, priority 2009, published 2013)
pIC50: −log10 of the molar value.

Target: T1, human kinase Mps-1 (Homo sapiens, UniProt P33981)
T1 construct: N-terminally GST-tagged human full length recombinant Mps-1 kinase; GST (N); purchased Invitrogen, Karslruhe, Germany PV4071
T1 sequence (P33981 1-857): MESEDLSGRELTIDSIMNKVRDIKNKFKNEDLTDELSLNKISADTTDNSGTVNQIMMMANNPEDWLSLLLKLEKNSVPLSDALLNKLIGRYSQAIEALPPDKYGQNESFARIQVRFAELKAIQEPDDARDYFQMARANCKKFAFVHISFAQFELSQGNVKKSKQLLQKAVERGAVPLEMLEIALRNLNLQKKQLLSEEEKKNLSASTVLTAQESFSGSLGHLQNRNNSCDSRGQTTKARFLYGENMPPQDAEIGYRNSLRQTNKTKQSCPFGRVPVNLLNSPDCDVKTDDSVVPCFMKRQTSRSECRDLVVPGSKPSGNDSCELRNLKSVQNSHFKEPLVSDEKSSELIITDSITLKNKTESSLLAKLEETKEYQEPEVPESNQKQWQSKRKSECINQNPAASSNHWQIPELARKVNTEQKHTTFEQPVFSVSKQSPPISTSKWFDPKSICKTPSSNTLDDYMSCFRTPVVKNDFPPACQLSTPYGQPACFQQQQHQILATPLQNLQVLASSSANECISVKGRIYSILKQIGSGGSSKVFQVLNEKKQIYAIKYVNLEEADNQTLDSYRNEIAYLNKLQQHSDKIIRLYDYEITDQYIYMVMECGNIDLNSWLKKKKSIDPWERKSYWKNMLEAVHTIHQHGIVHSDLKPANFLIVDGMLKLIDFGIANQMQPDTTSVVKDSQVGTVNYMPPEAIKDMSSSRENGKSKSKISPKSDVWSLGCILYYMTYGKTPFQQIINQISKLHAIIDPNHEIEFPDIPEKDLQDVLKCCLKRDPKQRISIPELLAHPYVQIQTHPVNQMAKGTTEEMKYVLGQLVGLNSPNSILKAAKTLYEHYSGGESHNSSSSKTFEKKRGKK
Experiment: Mps-1 kinase assay (HTRF)
Assay type: biochemical

Row | SMILES | pIC50
1 | C[C@@H](NC(=O)c1cccc(-c2ccc3nc(Nc4ccccc4C#N)nn3c2)c1)C(C)(C)C [Example 11.039, 3-{2-[(2-cyanophenyl)amino][1,2,4]triazolo[1,5-a]pyridin-6-yl}-N-[(2R)-3,3-dimethylbutan-2-yl]benzamide] | 8.77
2 | C[C@@H](NC(=O)c1cccc(-c2ccc3nc(Nc4ccccc4C#N)nn3c2)c1)C(F)(F)F [Example 11.040, 3-{2-[(2-cyanophenyl)amino][1,2,4]triazolo[1,5-a]pyridin-6-yl}-N-[(2R)-1,1,1-trifluoropropan-2-yl]benzamide] | 8.90
3 | CC(F)(F)CNC(=O)c1cccc(-c2ccc3nc(Nc4ccccc4C#N)nn3c2)c1 [Example 11.041, 3-{2-[(2-cyanophenyl)amino][1,2,4]triazolo[1,5-a]pyridin-6-yl}-N-(2,2-difluoropropyl)benzamide] | 8.60
4 | CC(C)(C)CNC(=O)c1cccc(-c2ccc3nc(Nc4ccccc4C#N)nn3c2)c1 [Example 11.042, 3-{2-[(2-cyanophenyl)amino][1,2,4]triazolo[1,5-a]pyridin-6-yl}-N-(2,2-dimethylpropyl)benzamide] | ≥ 9.00
5 | N#Cc1ccccc1Nc1nc2ccc(-c3cccc(C(=O)NCC(F)(F)C(F)(F)F)c3)cn2n1 [Example 11.043, 3-{2-[(2-cyanophenyl)amino][1,2,4]triazolo[1,5-a]pyridin-6-yl}-N-(2,2,3,3,3-pentafluoropropyl)benzamide] | ≥ 9.00
6 | N#Cc1ccccc1Nc1nc2ccc(-c3cccc(C(=O)NCC(F)(F)F)c3)cn2n1 [Example 11.044, 3-{2-[(2-cyanophenyl)amino][1,2,4]triazolo[1,5-a]pyridin-6-yl}-N-(2,2,2-trifluoroethyl)benzamide] | 8.83
7 | CC(C)(C)NC(=O)c1cccc(-c2ccc3nc(Nc4ccccc4C#N)nn3c2)c1 [Example 11.045, N-tert-butyl-3-{2-[(2-cyanophenyl)amino][1,2,4]triazolo[1,5-a]pyridin-6-yl}benzamide] | 8.93
8 | CC(C)(CO)NC(=O)c1cccc(-c2ccc3nc(Nc4ccccc4C#N)nn3c2)c1 [Example 11.046, 3-{2-[(2-cyanophenyl)amino][1,2,4]triazolo[1,5-a]pyridin-6-yl}-N-(1-hydroxy-2-methylpropan-2-yl)benzamide] | 8.48
9 | CC(C)[C@@H](C)NC(=O)c1cccc(-c2ccc3nc(Nc4ccccc4C#N)nn3c2)c1 [Example 11.047, 3-{2-[(2-cyanophenyl)amino][1,2,4]triazolo[1,5-a]pyridin-6-yl}-N-[(2R)-3-methylbutan-2-yl]benzamide] | 8.38
10 | N#Cc1ccccc1Nc1nc2ccc(-c3cccc(C(=O)NCCC(F)(F)F)c3)cn2n1 [Example 11.048, 3-{2-[(2-cyanophenyl)amino][1,2,4]triazolo[1,5-a]pyridin-6-yl}-N-(3,3,3-trifluoropropyl)benzamide] | 8.40
11 | CC(C)CNC(=O)c1cccc(-c2ccc3nc(Nc4ccccc4C#N)nn3c2)c1 [Example 11.049, 3-{2-[(2-cyanophenyl)amino][1,2,4]triazolo[1,5-a]pyridin-6-yl}-N-isobutylbenzamide] | 8.47
12 | N#Cc1ccccc1Nc1nc2ccc(-c3cccc(C(=O)NCC(F)F)c3)cn2n1 [Example 11.050, 3-{2-[(2-cyanophenyl)amino][1,2,4]triazolo[1,5-a]pyridin-6-yl}-N-(2,2-difluoroethyl)benzamide] | 8.38
13 | CC(C)[C@H](C)NC(=O)c1cccc(-c2ccc3nc(Nc4ccccc4C#N)nn3c2)c1 [Example 11.051, 3-{2-[(2-cyanophenyl)amino][1,2,4]triazolo[1,5-a]pyridin-6-yl}-N-[(2S)-3-methylbutan-2-yl]benzamide] | 8.25
14 | CCCNC(=O)c1cccc(-c2ccc3nc(Nc4ccccc4C#N)nn3c2)c1 [Example 11.052, 3-{2-[(2-cyanophenyl)amino][1,2,4]triazolo[1,5-a]pyridin-6-yl}-N-propylbenzamide] | 8.20
15 | N#Cc1ccccc1Nc1nc2ccc(-c3cccc(C(=O)NCCF)c3)cn2n1 [Example 11.054, 3-{2-[(2-cyanophenyl)amino][1,2,4]triazolo[1,5-a]pyridin-6-yl}-N-(2-fluoroethyl)benzamide] | 8.21
16 | CC(C)(C)CCNC(=O)c1cccc(-c2ccc3nc(Nc4ccccc4C#N)nn3c2)c1 [Example 11.055, 3-{2-[(2-cyanophenyl)amino][1,2,4]triazolo[1,5-a]pyridin-6-yl}-N-(3,3-dimethylbutyl)benzamide] | 8.01
17 | CC(C)(C)CNC(=O)c1cc(F)cc(-c2ccc3nc(Nc4ccccc4C#N)nn3c2)c1 [Example 11.056, 3-{2-[(2-cyanophenyl)amino][1,2,4]triazolo[1,5-a]pyridin-6-yl}-N-(2,2-dimethylpropyl)-5-fluorobenzamide] | 8.04
18 | C[C@H](NC(=O)c1cccc(-c2ccc3nc(Nc4ccccc4C#N)nn3c2)c1)C(C)(C)C [Example 11.057, 3-{2-[(2-cyanophenyl)amino][1,2,4]triazolo[1,5-a]pyridin-6-yl}-N-[(2S)-3,3-dimethylbutan-2-yl]benzamide] | 7.91
19 | CC(C)(C)CNC(=O)c1cccc(-c2ccc3nc(Nc4ccccc4C#N)nn3c2)c1F [Example 11.058, 3-{2-[(2-cyanophenyl)amino][1,2,4]triazolo[1,5-a]pyridin-6-yl}-N-(2,2-dimethylpropyl)-2-fluorobenzamide] | 7.89
20 | N#Cc1ccccc1Nc1nc2ccc(-c3cc(F)cc(C(=O)NCC(F)(F)F)c3)cn2n1 [Example 11.059, 3-{2-[(2-cyanophenyl)amino][1,2,4]triazolo[1,5-a]pyridin-6-yl}-5-fluoro-N-(2,2,2-trifluoroethyl)benzamide] | 7.90
21 | COC(C)(C)CNC(=O)c1cccc(-c2ccc3nc(Nc4ccccc4C#N)nn3c2)c1 [Example 11.060, 3-{2-[(2-cyanophenyl)amino][1,2,4]triazolo[1,5-a]pyridin-6-yl}-N-(2-methoxy-2-methylpropyl)benzamide] | 8.04
22 | N#Cc1ccccc1Nc1nc2ccc(-c3cccc(C(=O)NCC(F)(F)F)c3F)cn2n1 [Example 11.061, 3-{2-[(2-cyanophenyl)amino][1,2,4]triazolo[1,5-a]pyridin-6-yl}-2-fluoro-N-(2,2,2-trifluoroethyl)benzamide] | 7.89
23 | CC(C)(O)CNC(=O)c1cccc(-c2ccc3nc(Nc4ccccc4C#N)nn3c2)c1 [Example 11.062, 3-{2-[(2-cyanophenyl)amino][1,2,4]triazolo[1,5-a]pyridin-6-yl}-N-(2-hydroxy-2-methylpropyl)benzamide] | 7.86
24 | N#Cc1ccccc1Nc1nc2ccc(-c3cccc(C(=O)NCC(F)(F)C(F)(F)F)c3F)cn2n1 [Example 11.063, 3-{2-[(2-cyanophenyl)amino][1,2,4]triazolo[1,5-a]pyridin-6-yl}-2-fluoro-N-(2,2,3,3,3-pentafluoropropyl)benzamide] | 7.76
25 | C[C@H](NC(=O)c1cccc(-c2ccc3nc(Nc4ccccc4C#N)nn3c2)c1)C(F)(F)F [Example 11.064, 3-{2-[(2-cyanophenyl)amino][1,2,4]triazolo[1,5-a]pyridin-6-yl}-N-[(2S)-1,1,1-trifluoropropan-2-yl]benzamide] | 7.58
26 | CC(C)(C)NC(=O)c1cccc(-c2ccc3nc(Nc4ccccc4C#N)nn3c2)c1F [Example 11.065, N-tert-butyl-3-{2-[(2-cyanophenyl)amino][1,2,4]triazolo[1,5-a]pyridin-6-yl}-2-fluorobenzamide] | 7.74
